{"source": "paper PMC12113356", "about": "“Novel Anti-MRSA Peptide from Mangrove-Derived Virgibacillus chiguensis FN33 Supported by Genomics and Molecular Dynamics” (Marine Drugs, 2025)", "key": {"S. aureus TISTR 517 [1]": {"system": "S. aureus TISTR 517", "experiment": "Scanning electron microscopy of treated cells", "format": "cell-based, Staphylococcus aureus", "conditions": "1× MIC, 16 h / 18 h (figure legend), 30,000× magnification", "excerpt": "(§1) SEM was used to examine morphological alterations in the bacterial cells. […] This appearance reflected their natural cellular structure.\n(§2) Figure 5 SEM images captured at 30,000× magnification. […] The non-treatment condition served as a negative control."}, "MRSA strain 2468 [2]": {"system": "MRSA strain 2468", "experiment": "Scanning electron microscopy of treated cells", "format": "cell-based, Staphylococcus aureus", "conditions": "1× MIC, 16 h / 18 h (figure legend), 30,000× magnification", "excerpt": "as §1, §2"}, "S. aureus TISTR 517 [3]": {"system": "S. aureus TISTR 517", "experiment": "Broth microdilution MIC/MBC (CLSI)", "format": "cell-based, Staphylococcus aureus", "conditions": "broth microdilution, CAMHB, 37 °C 24 h, triplicate", "experimental": "The broth microdilution method was performed following the guidelines of the Clinical and Laboratory Standards Institute (CLSI). Test strains including S. aureus TISTR 517 and MRSA strains 142, 1096, and 2468 were cultured on MH agar at 37 °C for 18 h. A single colony from each strain was suspended in 0.85% NaCl until it reached a turbidity of 0.1 OD at 625 nm (1 × 10^8 CFU/mL). The bacterial cells were then diluted to 5 × 10^6 CFU/mL using cation-adjusted Mueller–Hinton broth (CAMHB). Ten microliters of the cell suspension were added to each well of a 96-well plate to make the total volume in each well 100 µL. The AMP was added to achieve final concentrations ranging from 0.125 to 64 µg/mL. Vancomycin and cefoxitin were used as positive controls, while antibiotic-free samples were used as negative controls. The plate was incubated at 37 °C for 24 h. Each experiment was performed in triplicate. The MIC was determined as the lowest concentration that inhibited visible bacterial growth. For the MBC, 100 µL from each dilution was spread on MH agar and incubated at 37 °C for 24 h. The MBC was the lowest concentration at which no bacterial colonies appeared on the agar plates."}, "MRSA strain 2468 [4]": {"system": "MRSA strain 2468", "experiment": "Thermal stability (activity retention by agar well diffusion)", "format": "physicochemical, Staphylococcus aureus", "conditions": "for Antibacterial Activity Retention of FN33 AMP (%) Against MRSA Strain 2468: 32 µg/mL in water, agar well diffusion read-out, % of untreated sample, mean ± SD, n = 3", "experimental": "The AMP solution was prepared in sterile purified water and adjusted to a final concentration of 32 µg/mL. To determine thermal stability, the AMP was exposed to temperatures of 30, 40, 60, 80, and 100 °C, as well as to autoclaving at 121 °C and 15 psi for 15 and 30 min. The susceptibility of the AMP to enzymatic degradation was examined by treating it with proteinase K, trypsin, and α-chymotrypsin (each at 1 mg/mL, Sigma-Aldrich, Warren, MI, USA), representing different proteolytic mechanisms. The AMP’s compatibility with surfactants was assessed by incubating it with 1% SDS, 1% CTAB, and 1% Triton X-100 (AppliChem GmbH, Darmstadt, Germany). Additionally, the effect of pH variations on AMP integrity was tested by adjusting the solution to pH 1, 4, 8, 10, and 14. The pH was neutralized to the original pH after incubation before conducting antibacterial activity tests. […] Stability data were expressed as residual activity percentages relative to the untreated sample (mean ± SD), and statistical significance was evaluated using two-way ANOVA and Tukey’s post hoc test, with a p-value < 0.05 considered significant."}, "S. aureus TISTR 517 [5]": {"system": "S. aureus TISTR 517", "experiment": "Sytox Green uptake assay (membrane permeabilization)", "format": "cell-based, Staphylococcus aureus", "conditions": "10 µM Sytox Green, ex 504/em 523 nm, over 24 h", "experimental": "(§3) The Sytox Green uptake assay was conducted to assess membrane permeabilization associated with loss of membrane integrity. The fluorescence would be detected from a Sytox Green–DNA complex. […] Triton X-100 (0.125–2%) and an untreated sample were used as positive and negative controls, respectively. Fluorescence intensities were recorded 5 min before sample addition across all groups to ensure cell integrity prior to the experiment. […] For MRSA strain 2468, fluorescence intensity was higher than the positive control at the time of sample addition and remained concentration-dependent.\n(§4) The membrane permeabilization of bacterial cells was determined by the increase in fluorescence intensity caused by the Sytox Green–DNA complex. The fluorescence intensity was observed over time for 24 h. The inset graphs show the expanded view of the fluorescence baseline before sample addition and the fluorescence intensity during the initial 60 min after sample addition. The increase in fluorescence intensity over the entire treatment period was expressed as fold changes, comparing different sample concentrations to the untreated condition of S. aureus TISTR 517 (c) and MRSA strain 2468 (d).\n(§5) The Sytox Green uptake assay was performed to evaluate the disruption of cell membrane integrity induced by the AMP [67]. An overnight culture (16 h) of MRSA strain 2468 was harvested and washed three times with sterile PBS (pH 7.4) supplemented with 0.2% CAMHB as a diluent. The cell suspension was then diluted with the same diluent until the OD at 625 nm was 0.1 (1 × 10^8 CFU/mL). An aliquot (100 µL) of the diluted cells was added to each well, followed by incubation with 10 µM Sytox Green (Thermo Fisher Scientific Inc., Waltham, MA, USA) in the dark for 15 min. […] Triton X-100 (AppliChem GmbH, Darmstadt, Germany) was used as a positive control and prepared at final concentrations ranging from 0.125% to 2%. These concentrations were used to compare the level of cell membrane permeability induced by the AMP. Membrane permeability was assessed by measuring fluorescence intensity using a microplate reader (Thermo Scientific Inc., Waltham, MA, USA) at excitation and emission wavelengths of 504 nm and 523 nm, respectively, over a 24 h period following AMP addition. Significant differences in fluorescence intensity (p-value < 0.05) were analyzed using two-way ANOVA and Tukey’s post hoc test for multiple comparisons between treated and untreated conditions."}, "MRSA strain 2468 [6]": {"system": "MRSA strain 2468", "experiment": "Sytox Green uptake assay (membrane permeabilization)", "format": "cell-based, Staphylococcus aureus", "conditions": "10 µM Sytox Green, ex 504/em 523 nm, over 24 h", "experimental": "as §3, §4, §5"}}, "note": "Peptide text beside a SMILES is read from it.", "data": [{"smiles": "CC(C)C[C@H](NC(=O)[C@H](CC(=O)O)NC(=O)[C@H](CS)NC(=O)[C@H](Cc1c[nH]cn1)NC(=O)[C@H](CS)NC(=O)[C@@H]1CCCN1C(=O)[C@@H](NC(=O)[C@H](CC(C)C)NC(=O)[C@H](CS)NC(=O)CNC(=O)[C@H](Cc1c[nH]c2ccccc12)NC(=O)[C@@H](NC(=O)[C@H](CC(=O)O)NC(=O)[C@@H](NC(=O)CNC(=O)[C@H](CS)NC(=O)CNC(=O)CNC(=O)[C@@H](N)CCC(=O)O)C(C)C)[C@@H](C)O)[C@@H](C)O)C(=O)N[C@@H](Cc1ccccc1)C(=O)N[C@@H](CS)C(=O)N[C@H](C(=O)N[C@H](C(=O)O)[C@@H](C)O)[C@@H](C)O", "note": "[FN33 AMP] (H-EGGCGVDTWGCLTPCHCDLFCTT-OH)", "values": [{"measurement": "morphological changes under SEM", "setting": "S. aureus TISTR 517 [1]", "result": "dented and rough surface with fewer lysed cells"}, {"measurement": "morphological changes under SEM", "setting": "MRSA strain 2468 [2]", "result": "greater number of completely lysed cells"}, {"measurement": "MIC", "setting": "S. aureus TISTR 517 [3]", "result": 16, "unit": "µg/mL"}, {"measurement": "Antibacterial Activity Retention of FN33 AMP (%) Against MRSA Strain 2468", "setting": "MRSA strain 2468 [4]; 30 °C, 1 h", "result": "100.00 ± 0.66", "unit": "%"}, {"measurement": "Antibacterial Activity Retention of FN33 AMP (%) Against MRSA Strain 2468", "setting": "MRSA strain 2468 [4]; 30 °C, 6 h", "result": "100.00 ± 0.17", "unit": "%"}, {"measurement": "Antibacterial Activity Retention of FN33 AMP (%) Against MRSA Strain 2468", "setting": "MRSA strain 2468 [4]; 30 °C, 12 h", "result": "99.79 ± 0.47", "unit": "%"}, {"measurement": "Antibacterial Activity Retention of FN33 AMP (%) Against MRSA Strain 2468", "setting": "MRSA strain 2468 [4]; 40 °C, 1 h", "result": "100.08 ± 0.48", "unit": "%"}, {"measurement": "Antibacterial Activity Retention of FN33 AMP (%) Against MRSA Strain 2468", "setting": "MRSA strain 2468 [4]; 40 °C, 6 h", "result": "100.02 ± 0.35", "unit": "%"}, {"measurement": "Antibacterial Activity Retention of FN33 AMP (%) Against MRSA Strain 2468", "setting": "MRSA strain 2468 [4]; 40 °C, 12 h", "result": "100.23 ± 0.28", "unit": "%"}, {"measurement": "Antibacterial Activity Retention of FN33 AMP (%) Against MRSA Strain 2468", "setting": "MRSA strain 2468 [4]; 60 °C, 1 h", "result": "98.58 ± 1.74", "unit": "%"}, {"measurement": "Antibacterial Activity Retention of FN33 AMP (%) Against MRSA Strain 2468", "setting": "MRSA strain 2468 [4]; 60 °C, 6 h", "result": "93.53 ± 1.27 *^,† %"}, {"measurement": "Antibacterial Activity Retention of FN33 AMP (%) Against MRSA Strain 2468", "setting": "MRSA strain 2468 [4]; 60 °C, 12 h", "result": "86.98 ± 0.79 *^,† %"}, {"measurement": "Antibacterial Activity Retention of FN33 AMP (%) Against MRSA Strain 2468", "setting": "MRSA strain 2468 [4]; 80 °C, 1 h", "result": "95.17 ± 0.43", "unit": "%"}, {"measurement": "Antibacterial Activity Retention of FN33 AMP (%) Against MRSA Strain 2468", "setting": "MRSA strain 2468 [4]; 80 °C, 6 h", "result": "90.91 ± 0.26 *^,† %"}, {"measurement": "Antibacterial Activity Retention of FN33 AMP (%) Against MRSA Strain 2468", "setting": "MRSA strain 2468 [4]; 80 °C, 12 h", "result": "82.46 ± 0.55 *^,† %"}, {"measurement": "Antibacterial Activity Retention of FN33 AMP (%) Against MRSA Strain 2468", "setting": "MRSA strain 2468 [4]; 100 °C, 1 h", "result": "90.83 ± 0.67", "unit": "%"}, {"measurement": "Antibacterial Activity Retention of FN33 AMP (%) Against MRSA Strain 2468", "setting": "MRSA strain 2468 [4]; 100 °C, 6 h", "result": "83.38 ± 0.83 *^,† %"}, {"measurement": "Antibacterial Activity Retention of FN33 AMP (%) Against MRSA Strain 2468", "setting": "MRSA strain 2468 [4]; 100 °C, 12 h", "result": "79.97 ± 0.06 *^,† %"}, {"measurement": "Antibacterial Activity Retention of FN33 AMP (%) Against MRSA Strain 2468", "setting": "MRSA strain 2468 [4]; autoclave 121 °C and 15 psi, 15 min", "result": "72.82 ± 0.53", "unit": "%"}, {"measurement": "Antibacterial Activity Retention of FN33 AMP (%) Against MRSA Strain 2468", "setting": "MRSA strain 2468 [4]; autoclave 121 °C and 15 psi, 30 min", "result": "65.87 ± 0.82 *^,† %"}, {"measurement": "activity lost due to elevated temperatures", "setting": "MRSA strain 2468 [4]; 60 °C, 80 °C and 100 °C, over 12 h", "result": "up to 20%"}, {"measurement": "average increase in fluorescence intensity vs untreated group", "setting": "S. aureus TISTR 517 [5]; 0.25× MIC", "result": "1.88 ± 0.83", "unit": "fold"}, {"measurement": "average increase in fluorescence intensity vs untreated group", "setting": "S. aureus TISTR 517 [5]; 0.5× MIC", "result": "1.89 ± 0.91", "unit": "fold"}, {"measurement": "average increase in fluorescence intensity vs untreated group", "setting": "S. aureus TISTR 517 [5]; 1× MIC", "result": "1.98 ± 0.92", "unit": "fold"}, {"measurement": "average increase in fluorescence intensity vs untreated group", "setting": "S. aureus TISTR 517 [5]; 2× MIC", "result": "3.54 ± 1.64", "unit": "fold"}, {"measurement": "average increase in fluorescence intensity vs untreated group", "setting": "S. aureus TISTR 517 [5]; 4× MIC", "result": "8.49 ± 4.31", "unit": "fold"}, {"measurement": "average fluorescence increase vs untreated group", "setting": "MRSA strain 2468 [6]; 0.25× MIC", "result": "5.87 ± 0.72", "unit": "fold"}, {"measurement": "average fluorescence increase vs untreated group", "setting": "MRSA strain 2468 [6]; 0.5× MIC", "result": "7.44 ± 0.77", "unit": "fold"}, {"measurement": "average fluorescence increase vs untreated group", "setting": "MRSA strain 2468 [6]; 1× MIC", "result": "7.91 ± 0.48", "unit": "fold"}, {"measurement": "average fluorescence increase vs untreated group", "setting": "MRSA strain 2468 [6]; 2× MIC", "result": "8.49 ± 0.25", "unit": "fold"}, {"measurement": "average fluorescence increase vs untreated group", "setting": "MRSA strain 2468 [6]; 4× MIC", "result": "9.13 ± 0.46", "unit": "fold"}]}]}
